Reference: patent publication US4113946A, “Δ^2,3 -1,4-Morpholine-2-carboxylic acid derivatives as antibacterial agents” (Bristol-Myers Company, priority 1977, dated 1978)
Converted amounts (≈) assume the structure as drawn. Structures can show the parent of a compound that is named as a salt. Where two headings read alike, the source gives them in different places.

How the values were obtained:
Ent. cloacae A9659 = assay: M.I.C. by tube dilution, Ent. cloacae A9659; format: cell-based; settings: Enterobacter cloacae, A9659, overnight 37° C.
Ent. cloacae A9657 = assay: M.I.C. by tube dilution, Ent. cloacae A9657; format: cell-based; settings: Enterobacter cloacae
S. aureus BX1633-2 A9606 = assay: M.I.C. by tube dilution, S. aureus BX1633-2 A9606; format: cell-based; settings: overnight 37° C.; for MIC: Staphylococcus aureus
Sal. enteritidis A9531 = assay: M.I.C. by tube dilution, Sal. enteritidis A9531; format: cell-based; settings: Salmonella enterica, ENTERITIDIS
[1] = tested on: S. aureus meth.-resist; A15097; assay: M.I.C. by tube dilution, S. aureus meth.-resist A15097; format: cell-based; settings: Staphylococcus aureus, at 10^-3 dil'n, overnight 37° C.
E. coli A9675 = assay: M.I.C. by tube dilution, E. coli A9675; format: cell-based; settings: Escherichia coli
Ser. marcescens A20019 = assay: M.I.C. by tube dilution, Ser. marcescens A20019; format: cell-based; settings: Serratia marcescens
E. coli Juhl A15119 = assay: M.I.C. by tube dilution, E. coli Juhl A15119; format: cell-based; settings: Escherichia coli, JUHLA15119
Str. pyogenes A9604 = assay: M.I.C. by tube dilution, Str. pyogenes A9604; format: cell-based; settings: Streptococcus pyogenes, +5% serum, 50% Nutrient Broth - 45% Antibiotic Assay Broth, overnight 37° C., read-out: M.I.C.
Pr. mirabilis A9900 = assay: M.I.C. by tube dilution, Pr. mirabilis A9900; format: cell-based; settings: Proteus mirabilis
Ent. cloacae A9656 = assay: M.I.C. by tube dilution, Ent. cloacae A9656; format: cell-based; settings: Enterobacter cloacae
K. pneumoniae A9977 = assay: M.I.C. by tube dilution, K. pneumoniae A9977; format: cell-based; settings: Klebsiella pneumoniae
D. pneumoniae A9585 = assay: M.I.C. by tube dilution, D. pneumoniae A9585; format: cell-based; settings: Streptococcus pneumoniae, A9585
K. pneumoniae A15130 = assay: M.I.C. by tube dilution, K. pneumoniae A15130; format: cell-based; settings: Klebsiella pneumoniae
Ps. aeruginosa A9843A = assay: microbe, parasite or virus in culture; format: cell-based; settings: Pseudomonas aeruginosa
Pr. morganii A15153 = assay: M.I.C. by tube dilution, Pr. morganii A15153; format: cell-based; settings: Morganella morganii
S. aureus Smith A9537 = assay: M.I.C. by tube dilution, S. aureus Smith A9537; format: cell-based; settings: Staphylococcus aureus
St. pyrogenes = assay: Inhibition of St. pyrogenes; format: cell-based; settings: read-out: found to inhibit St. pyrogenes at a concentration of
in vivo = settings: mouse, po, 100 mg/kg
[2] = A9657, overnight 37° C., read-out: M.I.C.
[3] = BX16332A9606, at 10^-2 dil'n, read-out: M.I.C.
[4] = at 10^-4 dilution, overnight 37° C., read-out: M.I.C.
[5] = +5% serum, 50% Nutrient Broth - 45% Antibiotic Assay Broth, overnight 37° C., read-out: M.I.C.
[6] = SMITHA9537, +50% serum, at 10^-4 dilution, overnight 37° C.
[7] = SMITHA9537, at 10^-4 dilution, overnight 37° C., read-out: M.I.C.
[8] = overnight 37° C., read-out: M.I.C.
[9] = SMITHA9537, at 10^-4 dilution, overnight 37° C.

| Structure (SMILES) | MIC (Ent. cloacae A9659) | MIC (Ent. cloacae A9657; [2]) | MIC (E. coli A9675) | MIC (Ser. marcescens A20019) | MIC (Ent. cloacae A9657; A9657) | MIC (S. aureus BX1633-2 A9606; BX16332A9606, at 10^-2 dil'n) | MIC (S. aureus BX1633-2 A9606; BX16332A9606, at 10^-3 dil'n) | MIC (E. coli Juhl A15119) | MIC (Str. pyogenes A9604) | MIC (Pr. mirabilis A9900) | MIC (Ent. cloacae A9656) | MIC (D. pneumoniae A9585; [5]) | MIC (Sal. enteritidis A9531) | MIC [1] | MIC (K. pneumoniae A15130) | MIC (Ps. aeruginosa A9843A) | MIC (Pr. morganii A15153) | MIC (S. aureus Smith A9537; [6]) | MIC (S. aureus Smith A9537; [7]) | MIC (K. pneumoniae A9977) | further results |
| --- | --- | --- | --- | --- | --- | --- | --- | --- | --- | --- | --- | --- | --- | --- | --- | --- | --- | --- | --- | --- | --- |
| CC1=C(C(=O)O)N2C(=O)[C@@H](NC(=O)[C@H](N)c3ccccc3)[C@H]2SC1 [Cephalexin, cephalexin, reference compound] | 125 µg/mL (≈ 360 µM) | 2 µg/mL (≈ 5.76 µM) | 32 µg/mL (≈ 92.1 µM) |  |  |  |  |  |  |  |  |  |  |  |  |  |  |  |  |  | MIC (S. aureus BX1633-2 A9606; [3]): 4 µg/mL (≈ 11.5 µM); MIC (S. aureus BX1633-2 A9606; BX16332A9606, at 10^-3 dil'n, read-out: M.I.C.): 4 µg/mL (≈ 11.5 µM); M.I.C. (S. aureus BX1633-2 A9606; at 10^-2 dil'n): 8 meg./ml.; M.I.C. (S. aureus BX1633-2 A9606; at 10^-3 dil'n): 2 meg./ml.; MIC (Sal. enteritidis A9531; [4]): 1 µg/mL (≈ 2.88 µM); MIC ([1]; read-out: M.I.C.): 63 µg/mL (≈ 181 µM) |
| COC(=O)CC1=C(C(=O)O)N2C(=O)[C@@H](NC(=O)COc3ccccc3)[C@H]2CO1 (relative stereo) [BC-L33, 7β-Phenoxyacetamido-3-carbomethoxymethylene-Δ^3 -O-2-isocephem-4-carboxylic acid] | > 125 µg/mL |  | > 125 µg/mL | > 125 µg/mL | > 125 µg/mL | > 125 µg/mL | 16 µg/mL (≈ 41 µM) | 125 µg/mL (≈ 320 µM) | 0.06 µg/mL (≈ 0.154 µM) | 32 µg/mL (≈ 82 µM) | > 125 µg/mL | 0.06 µg/mL (≈ 0.154 µM) | 8 µg/mL (≈ 20.5 µM) | > 125 µg/mL | > 125 µg/mL | > 125 µg/mL | > 125 µg/mL | 1 µg/mL (≈ 2.56 µM) | 0.25 µg/mL (≈ 0.64 µM) |  | MIC (K. pneumoniae A9977; [4]): 63 µg/mL (≈ 161 µM) |
| CC1=C(C(=O)O)N2C(=O)[C@@H](N)[C@H]2CO1 (relative stereo) [BC-L61, 7β-Amino-3-methyl-Δ^3 -O-2-isocephem-4-carboxylic acid] |  |  |  |  |  |  |  |  |  |  |  |  |  |  |  |  |  |  |  |  | MIC (E. coli Juhl A15119; read-out: found to inhibit E. coli A15119 at a concentration of): > 125 µg/mL; MIC (D. pneumoniae A9585; read-out: found to inhibit D. pneumoniae A9585 at a concentration of): > 8 µg/mL; MIC (St. pyrogenes): > 8 µg/mL; MIC (S. aureus Smith A9537; SMITHA9537, read-out: found to inhibit S. aureus A9537 at a concentration of): > 125 µg/mL |
| CC1=C(C(=O)O)N2C(=O)[C@@H](NC(=O)[C@H](N)c3ccccc3)[C@H]2CO1 [BC-L9, 7β-(D-α-aminophenylacetamido)-3-methyl-Δ^3 -O-2-isocephem-4-carboxylic acid hydrochloride] | 125 µg/mL |  |  |  | 32 µg/mL | 32 µg/mL | 8 µg/mL | 32 µg/mL | 0.5 µg/mL |  |  | 0.5 µg/mL | 16 µg/mL | 32 µg/mL |  | > 500 µg/mL |  | 16 µg/mL |  | 16 µg/mL | MIC (Ser. marcescens A20019; [4]): 500 µg/mL; MIC (Pr. mirabilis A9900; [4]): 63 µg/mL; MIC (Ent. cloacae A9656; [8]): 500 µg/mL; MIC (K. pneumoniae A15130; [4]): 63 µg/mL; MIC (Pr. morganii A15153; [4]): 250 µg/mL; MIC (E. coli A9675; [4]): 63 µg/mL; MIC (S. aureus Smith A9537; [9]): 2 µg/mL |
| O=C(COc1ccccc1)NC1C(=O)N2C(C(=O)O)=C(CCc3ccccc3)OCC12 (stereo not drawn) [BC-L54, 7β-phenoxyacetamido-3-phenethyl-Δ^3 -O-2-isocephem-4-carboxylic acid] | > 125 µg/mL |  | > 125 µg/mL | > 125 µg/mL | > 125 µg/mL | > 125 µg/mL | 8 µg/mL (≈ 18.9 µM) |  | 0.03 µg/mL (≈ 0.071 µM) | > 125 µg/mL | > 125 µg/mL | 0.03 µg/mL (≈ 0.071 µM) | > 125 µg/mL | 125 µg/mL (≈ 296 µM) | > 125 µg/mL | > 125 µg/mL | > 125 µg/mL |  | 0.06 µg/mL (≈ 0.142 µM) | > 125 µg/mL | MIC (E. coli Juhl A15119; [4]): 0.5 µg/mL (≈ 1.18 µM); MIC (S. aureus Smith A9537; SMITHA9537, +50% serum, at 10^-4 dilution, overnight 37° C., read-out: M.I.C.): 4 µg/mL (≈ 9.47 µM) |
| O=C(COc1ccccc1)NC1C(=O)N2C(C(=O)O)=C(Cc3ccccc3)OCC12 (stereo not drawn) [BC-L17, 7β-phenoxyacetamido-3-benzyl-Δ^3 -O-2-isocephem-4-carboxylic acid] | > 125 µg/mL |  | > 125 µg/mL | > 125 µg/mL | > 125 µg/mL | > 125 µg/mL | 8 µg/mL (≈ 19.6 µM) | > 125 µg/mL | 0.25 µg/mL (≈ 0.612 µM) | > 125 µg/mL | > 125 µg/mL | 0.25 µg/mL (≈ 0.612 µM) | 32 µg/mL (≈ 78.4 µM) | 125 µg/mL (≈ 306 µM) | > 125 µg/mL | > 125 µg/mL | > 125 µg/mL | 1 µg/mL (≈ 2.45 µM) | 0.25 µg/mL (≈ 0.612 µM) | > 125 µg/mL |  |
| CC1=C(C(=O)O)N2C(=O)[C@@H](NC(=O)COc3ccccc3)[C@H]2CO1 (relative stereo) [BC-L8, 7β-phenoxyacetamido-3-methyl-O-2-isocephem-4-carboxylic acid] |  | 63 µg/mL (≈ 190 µM) |  |  |  | 32 µg/mL (≈ 96.3 µM) | 2 µg/mL (≈ 6.02 µM) |  | 0.5 µg/mL (≈ 1.5 µM) | 16 µg/mL (≈ 48.1 µM) |  | 0.5 µg/mL (≈ 1.5 µM) | 8 µg/mL (≈ 24.1 µM) | 32 µg/mL (≈ 96.3 µM) |  | 500 µg/mL (≈ 1500 µM) |  | 2 µg/mL (≈ 6.02 µM) | 0.5 µg/mL (≈ 1.5 µM) | 32 µg/mL (≈ 96.3 µM) | MIC (Ent. cloacae A9659; read-out: M.I.C.): 500 µg/mL (≈ 1500 µM); MIC (Ser. marcescens A20019; [4]): 500 µg/mL (≈ 1500 µM); MIC (E. coli Juhl A15119; [4]): 63 µg/mL (≈ 190 µM); MIC (Ent. cloacae A9656; [8]): 500 µg/mL (≈ 1500 µM); MIC (K. pneumoniae A15130; [4]): 500 µg/mL (≈ 1500 µM); MIC (Pr. morganii A15153; [4]): 500 µg/mL (≈ 1500 µM); MIC (E. coli A9675; [4]): 250 µg/mL (≈ 752 µM) |
| CC1=C(C(=O)O)N2C(=O)[C@@H](NC(=O)C(N)c3ccccc3)[C@H]2CO1 (stereo partly drawn) [BC-L45, 7β-(α-amino-α-phenylacetamido)-3-methyl-Δ^3 -O-2-isocephem-4-carboxylic acid] | 125 µg/mL (≈ 377 µM) | 4 µg/mL (≈ 12.1 µM) | 32 µg/mL (≈ 96.6 µM) | > 125 µg/mL |  |  | 8 µg/mL (≈ 24.1 µM) |  | < 0.25 µg/mL | 8 µg/mL (≈ 24.1 µM) | 125 µg/mL (≈ 377 µM) | < 0.25 µg/mL |  |  | 8 µg/mL (≈ 24.1 µM) | > 125 µg/mL |  | 8 µg/mL (≈ 24.1 µM) |  |  | MIC (S. aureus BX1633-2 A9606; [3]): 63 µg/mL (≈ 190 µM); MIC (E. coli Juhl A15119; [4]): 4 µg/mL (≈ 12.1 µM); MIC (K. pneumoniae A9977; [4]): 4 µg/mL (≈ 12.1 µM); MIC (Sal. enteritidis A9531; [4]): 4 µg/mL (≈ 12.1 µM); concentration at 0.5 h (in vivo): 19400 ng/mL; concentration at 1 h (in vivo): 15700 ng/mL; concentration at 2 h (in vivo): 7300 ng/mL; concentration at 3.5 h (in vivo): 2900 ng/mL; MIC ([1]; read-out: M.I.C.): 63 µg/mL (≈ 190 µM); MIC (Pr. morganii A15153; [4]): 63 µg/mL (≈ 190 µM); MIC (S. aureus Smith A9537; [9]): 1 µg/mL (≈ 3.02 µM) |
